“And” between values parts separate entries of the source, which are not always exact repeats. Equal entries are not always repeated.
Key:
COLO 205 = assay: NCI-60 one-dose SRB screen (Colon Cancer); assay type: cell-based; conditions: Homo sapiens, single dose 10 µM, 48 h, read-out: Growth inhibition percent (GI %)
Description: (§1) The National Cancer Institute (NCI) Developmental Therapeutic Program (www.dtp.nci.nih.gov) selected the 20 novel synthesized compounds 4a-e, 5a-e, 6a-c, 9a-e, 10 and 11 to test for their anticancer activity at a single dose of 10 µM using SRB assay. […] Supplementary Data S3; Table S1 presents the detailed screening results of the most promising compounds. The preliminary screening’s detailed results for the remaining compounds are elucidated in the (Supplementary Data S3; Table S2).
(§2) The guidelines of the Drug Evaluation Branch’s protocol at the NCI in Bethesda served as the basis for the in vitro anticancer screening assays. at one dose 10 µM against a panel of 60 cancer cell lines. The human tumor cell lines used belonged to nine panels: leukemia, melanoma, lung, colon, CNS, ovarian, renal, prostate and breast cancers using the sulforhodamine B (SRB) assay in a 48 h drug exposure protocol.

HCC-2998 = assay: NCI-60 one-dose SRB screen (Colon Cancer); assay type: cell-based; conditions: Homo sapiens, single dose 10 µM, 48 h, read-out: Growth inhibition percent (GI %)
Description: as §1, §2

KM12 = assay: NCI-60 one-dose SRB screen (Colon Cancer); assay type: cell-based; conditions: Homo sapiens, single dose 10 µM, 48 h, read-out: Growth inhibition percent (GI %)
Description: as §1, §2

HCT-15 = assay: NCI-60 one-dose SRB screen (Colon Cancer); assay type: cell-based; conditions: Homo sapiens, single dose 10 µM, 48 h, read-out: Growth inhibition percent (GI %)
Description: as §1, §2

HCT-116 = assay: NCI-60 one-dose SRB screen (Colon Cancer); assay type: cell-based; conditions: Homo sapiens, single dose 10 µM, 48 h, read-out: Growth inhibition percent (GI %)
Description: as §1, §2

TK-10 = assay: NCI-60 one-dose SRB screen (Renal Cancer); assay type: cell-based; conditions: Homo sapiens, single dose 10 µM, 48 h, read-out: Growth inhibition percent (GI %)
Description: as §1, §2

ACHN = assay: NCI-60 one-dose SRB screen (Renal Cancer); assay type: cell-based; conditions: Homo sapiens, single dose 10 µM, 48 h, read-out: Growth inhibition percent (GI %)
Description: as §1, §2

UO-31 = assay: NCI-60 one-dose SRB screen (Renal Cancer); assay type: cell-based; conditions: Homo sapiens, single dose 10 µM, 48 h, read-out: Growth inhibition percent (GI %)
Description: as §1, §2

786-0 = assay: NCI-60 one-dose SRB screen (Renal Cancer); assay type: cell-based; conditions: Homo sapiens, single dose 10 µM, 48 h, read-out: Growth inhibition percent (GI %)
Description: as §1, §2

CAKI-1 = assay: NCI-60 one-dose SRB screen (Renal Cancer); assay type: cell-based; conditions: Homo sapiens, single dose 10 µM, 48 h, read-out: Growth inhibition percent (GI %)
Description: as §1, §2

A498 = assay: NCI-60 one-dose SRB screen (Renal Cancer); assay type: cell-based; conditions: Homo sapiens, single dose 10 µM, 48 h, read-out: Growth inhibition percent (GI %)
Description: as §1, §2

RXF 393 = assay: NCI-60 one-dose SRB screen (Renal Cancer); assay type: cell-based; conditions: Homo sapiens, single dose 10 µM, 48 h, read-out: Growth inhibition percent (GI %)
Description: as §1, §2

hCA XII = hCA XII (Homo sapiens, UniProt O43570); assay: CA inhibitory activity, spectrophotometric p-NPA assay; assay type: biochemical; conditions: p-NPA substrate, pH 7.5, 25 °C, triplicate; read-out: IC50 (µM) ± SD hCA XII
hCA XII, sequence (O43570 25-354): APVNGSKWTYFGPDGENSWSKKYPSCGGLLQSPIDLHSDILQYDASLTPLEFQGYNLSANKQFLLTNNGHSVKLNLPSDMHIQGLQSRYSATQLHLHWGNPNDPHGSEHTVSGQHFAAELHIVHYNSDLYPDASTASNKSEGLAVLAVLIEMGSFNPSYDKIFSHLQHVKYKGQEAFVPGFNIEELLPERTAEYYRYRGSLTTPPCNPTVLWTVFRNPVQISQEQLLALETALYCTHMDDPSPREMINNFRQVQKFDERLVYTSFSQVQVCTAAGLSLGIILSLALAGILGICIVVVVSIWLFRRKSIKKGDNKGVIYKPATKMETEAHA

MDA-MB-231/ATCC = assay: NCI-60 one-dose SRB screen (Breast Cancer); assay type: cell-based; conditions: Homo sapiens, single dose 10 µM, 48 h, read-out: Growth inhibition percent (GI %)
Description: as §1, §2

MDA-MB-468 = assay: NCI-60 one-dose SRB screen (Breast Cancer); assay type: cell-based; conditions: Homo sapiens, single dose 10 µM, 48 h, read-out: Growth inhibition percent (GI %)
Description: as §1, §2

BT-549 = assay: NCI-60 one-dose SRB screen (Breast Cancer); assay type: cell-based; conditions: Homo sapiens, single dose 10 µM, 48 h, read-out: Growth inhibition percent (GI %)
Description: as §1, §2

T-47D = assay: NCI-60 one-dose SRB screen (Breast Cancer); assay type: cell-based; conditions: Homo sapiens, T47D, single dose 10 µM, 48 h, read-out: Growth inhibition percent (GI %)
Description: as §1, §2

HS 578T = assay: NCI-60 one-dose SRB screen (Breast Cancer); assay type: cell-based; conditions: Homo sapiens, single dose 10 µM, 48 h, read-out: Growth inhibition percent (GI %)
Description: as §1, §2

MCF-7 = assay: NCI-60 one-dose SRB screen (Breast Cancer); assay type: cell-based; conditions: Homo sapiens, MCF7, single dose 10 µM, 48 h, read-out: Growth inhibition percent (GI %)
Description: as §1, §2

UACC-62 = assay: NCI-60 one-dose SRB screen (Melanoma); assay type: cell-based; conditions: Homo sapiens, single dose 10 µM, 48 h, read-out: Growth inhibition percent (GI %)
Description: as §1, §2

MALME-3M = assay: NCI-60 one-dose SRB screen (Melanoma); assay type: cell-based; conditions: Homo sapiens, single dose 10 µM, 48 h, read-out: Growth inhibition percent (GI %)
Description: as §1, §2

LOX IMVI = assay: NCI-60 one-dose SRB screen (Melanoma); assay type: cell-based; conditions: Homo sapiens, single dose 10 µM, 48 h, read-out: Growth inhibition percent (GI %)
Description: as §1, §2

SK-MEL-2 = assay: NCI-60 one-dose SRB screen (Melanoma); assay type: cell-based; conditions: Homo sapiens, single dose 10 µM, 48 h, read-out: Growth inhibition percent (GI %)
Description: as §1, §2

SK-MEL-5 = assay: NCI-60 one-dose SRB screen (Melanoma); assay type: cell-based; conditions: Homo sapiens, single dose 10 µM, 48 h, read-out: Growth inhibition percent (GI %)
Description: as §1, §2

UACC-257 = assay: NCI-60 one-dose SRB screen (Melanoma); assay type: cell-based; conditions: Homo sapiens, single dose 10 µM, 48 h, read-out: Growth inhibition percent (GI %)
Description: as §1, §2

MDA-MB-435 = assay: NCI-60 one-dose SRB screen (Melanoma); assay type: cell-based; conditions: Homo sapiens, single dose 10 µM, 48 h, read-out: Growth inhibition percent (GI %)
Description: as §1, §2

SK-MEL-28 = assay: NCI-60 one-dose SRB screen (Melanoma); assay type: cell-based; conditions: Homo sapiens, single dose 10 µM, 48 h, read-out: Growth inhibition percent (GI %)
Description: as §1, §2

M14 = assay: NCI-60 one-dose SRB screen (Melanoma); assay type: cell-based; conditions: Homo sapiens, single dose 10 µM, 48 h, read-out: Growth inhibition percent (GI %)
Description: as §1, §2

DU-145 = assay: NCI-60 one-dose SRB screen (Prostate Cancer); assay type: cell-based; conditions: Homo sapiens, single dose 10 µM, 48 h, read-out: Growth inhibition percent (GI %)
Description: as §1, §2

PC-3 = assay: NCI-60 one-dose SRB screen (Prostate Cancer); assay type: cell-based; conditions: Homo sapiens, single dose 10 µM, 48 h, read-out: Growth inhibition percent (GI %)
Description: as §1, §2

## CCOC(=O)c1ccc(NC(=O)COC(=O)c2cn(-c3ccc(S(N)(=O)=O)cc3)nc2-c2ccccc2)cc1 [Compound 5a, 2-[(4-(Ethoxycarbonyl)phenyl)amino]-2-oxoethyl 3-phenyl-1-(4-sulfamoylphenyl)-1H-pyrazole-4-carboxylate]
COLO 205
  inhibition at 10 µM: 39.1%
HCC-2998
  inhibition at 10 µM: 63.9%
KM12
  inhibition at 10 µM: 73.6%
HCT-15
  inhibition at 10 µM: 72.7%
HCT-116
  inhibition at 10 µM: 75.8%
TK-10
  inhibition at 10 µM: 40.1%
ACHN
  inhibition at 10 µM: 76.1%
UO-31
  inhibition at 10 µM: 62.7%
786-0
  inhibition at 10 µM: 66.9%
CAKI-1
  inhibition at 10 µM: 61.6%
A498
  inhibition at 10 µM: 25.3%
RXF 393
  inhibition at 10 µM: 66.5%
hCA XII
  IC50: 0.39 µM and 0.395 µM
MDA-MB-231/ATCC
  inhibition at 10 µM: 35.8%
MDA-MB-468
  inhibition at 10 µM: 62%
BT-549
  inhibition at 10 µM: 64.1%
T-47D
  inhibition at 10 µM: 69.7%
HS 578T
  inhibition at 10 µM: 44.6%
MCF-7
  inhibition at 10 µM: 81.6%
UACC-62
  inhibition at 10 µM: 55.2%
MALME-3M
  inhibition at 10 µM: 79.1%
LOX IMVI
  inhibition at 10 µM: 69.2%
SK-MEL-2
  inhibition at 10 µM: 50.8%
SK-MEL-5
  inhibition at 10 µM: 70.1%
UACC-257
  inhibition at 10 µM: 48%
MDA-MB-435
  inhibition at 10 µM: 45.1%
SK-MEL-28
  inhibition at 10 µM: 54.5%
M14
  inhibition at 10 µM: 63.5%
DU-145
  inhibition at 10 µM: 29.1%
PC-3
  inhibition at 10 µM: 68.1%
